Common to all, as to type: functional
Test [1] has as its system Candida albicans. Put plainly: Antifungal activity against fluconazole-resistant Candida albicans 901 assessed as inhibition of fungal growth by CLSI based microdilution method. For orientation: Broth dilution looks for growth in wells or tubes with falling amounts of substance.
The subject of the next test is Candida parapsilosis. Put plainly: Antifungal activity against Candida parapsilosis ATCC 22019 assessed as inhibition of fungal growth by CLSI protocol based microdilution method. As to conditions: Lodderomyces parapsilosis.
Another test deals with Candida tropicalis. The test is described as follows: Antifungal activity against Candida tropicalis CGMCC 2.3739 assessed as inhibition of fungal growth by CLSI protocol based microdilution method.
A further test concerns Cryptococcus neoformans. The test is described as follows: Antifungal activity against Cryptococcus neoformans CGMCC2.3161 assessed as inhibition of fungal growth by CLSI protocol based microdilution method.
The test system of the next test is Nakaseomyces glabratus. The test is described as follows: Antifungal activity against Candida glabrata assessed as inhibition of fungal growth by CLSI protocol based microdilution method.
For test [2], the system named is Candida albicans. Put plainly: Antifungal activity against Candida albicans SC5314 assessed as inhibition of fungal growth by CLSI protocol based microdilution method.
The test system of test [3] is Candida albicans. Put plainly: Antifungal activity against fluconazole-resistant Candida albicans 17 assessed as inhibition of fungal growth by CLSI based microdilution method.
Test [4] has as its system Candida albicans. Put plainly: Antifungal activity against fluconazole-resistant Candida albicans CaR assessed as inhibition of fungal growth by CLSI based microdilution method.
The subject of test [5] is Candida albicans. The test is described as follows: Antifungal activity against fluconazole-resistant Candida albicans 632 assessed as inhibition of fungal growth by CLSI based microdilution method.
The subject of another test is Pichia kudriavzevii. The test is described as follows: Antifungal activity against Candida krusei AS 2.1045 assessed as inhibition of fungal growth by CLSI protocol based microdilution method.
Test [6] concerns Candida albicans. Put plainly: Antifungal activity against fluconazole-resistant Candida albicans 904 assessed as inhibition of fungal growth by CLSI based microdilution method.
The next test relates to Aspergillus fumigatus. The test is described as follows: Antifungal activity against Aspergillus fumigatus CGMCC 3.7795 assessed as inhibition of fungal growth by CLSI protocol based microdilution method.
Test [7] concerns Candida albicans. The test is described as follows: Antifungal activity against Candida albicans CPCC400616 assessed as inhibition of fungal growth by CLSI protocol based microdilution method.

Converted amounts (≈) assume the structure as drawn.

What is called MIC is the lowest concentration that inhibits growth of the organism. Turning to `O=C(/C=C/c1ccc(COC(Cn2ccnc2)c2ccc(Cl)cc2Cl)cc1)Nc1ccc(F)cc1` (centres undefined), the MIC is 1 µg/mL (≈ 1.96 µM) in the test on Candida albicans [1]; 32 µg/mL (≈ 62.7 µM) with Candida parapsilosis; 2 µg/mL (≈ 3.92 µM) in the test with Candida tropicalis; 2 µg/mL (≈ 3.92 µM) in the test with Cryptococcus neoformans; 32 µg/mL (≈ 62.7 µM) in the test on Nakaseomyces glabratus; 0.03 µg/mL (≈ 0.0588 µM) in the test on Candida albicans [2]. Moreover, the MIC is 128 µg/mL (≈ 251 µM) in the test with Candida albicans [3]; 4 µg/mL (≈ 7.84 µM) in the test on Candida albicans [4]; 0.25 µg/mL (≈ 0.49 µM) with Candida albicans [5]; 64 µg/mL (≈ 125 µM) with Pichia kudriavzevii; 0.5 µg/mL (≈ 0.98 µM) in the test on Candida albicans [6]; 1 µg/mL (≈ 1.96 µM) with Aspergillus fumigatus. Also, the MIC in the test on Candida albicans [7] turned out to be 0.06 µg/mL (≈ 0.118 µM).

As for `NC(=O)/C=C/c1ccc(COC(Cn2ccnc2)c2ccc(Cl)cc2Cl)cc1` (centres undefined), the minimum inhibitory concentration (MIC) in the test on Candida albicans [1] came out at 32 µg/mL (≈ 76.9 µM); with Candida parapsilosis, 4 µg/mL (≈ 9.61 µM); in the test with Candida tropicalis it was 8 µg/mL (≈ 19.2 µM); with Cryptococcus neoformans, 16 µg/mL (≈ 38.4 µM); in the test on Nakaseomyces glabratus, 64 µg/mL (≈ 154 µM); with Candida albicans [2], 1 µg/mL (≈ 2.4 µM). Besides, the minimal inhibitory concentration (MIC) was 128 µg/mL (≈ 307 µM) in the test with Candida albicans [3]; 128 µg/mL (≈ 307 µM) in the test with Candida albicans [4]; 16 µg/mL (≈ 38.4 µM) in the test with Candida albicans [5]; 64 µg/mL (≈ 154 µM) in the test on Pichia kudriavzevii; 32 µg/mL (≈ 76.9 µM) in the test with Candida albicans [6]; 64 µg/mL (≈ 154 µM) in the test on Aspergillus fumigatus. Also, the MIC in the test on Candida albicans [7] turned out to be 2 µg/mL (≈ 4.8 µM).

Turning to `CC(C)NC(=O)/C=C/c1ccc(COC(Cn2ccnc2)c2ccc(Cl)cc2Cl)cc1` (centres undefined), the MIC in the test on Candida albicans [1] was found to be 4 µg/mL (≈ 8.73 µM); in the test on Candida parapsilosis, 2 µg/mL (≈ 4.36 µM); in the test on Candida tropicalis it was 4 µg/mL (≈ 8.73 µM); with Cryptococcus neoformans it was 8 µg/mL (≈ 17.5 µM); in the test on Nakaseomyces glabratus it was 4 µg/mL (≈ 8.73 µM); with Candida albicans [2] it was 0.5 µg/mL (≈ 1.09 µM). Besides, the MIC in the test on Candida albicans [3] stood at 16 µg/mL (≈ 34.9 µM); with Candida albicans [4], 16 µg/mL (≈ 34.9 µM); in the test on Candida albicans [5], 1 µg/mL (≈ 2.18 µM); in the test with Pichia kudriavzevii it was 4 µg/mL (≈ 8.73 µM); with Candida albicans [6] it was 8 µg/mL (≈ 17.5 µM); with Aspergillus fumigatus, 2 µg/mL (≈ 4.36 µM). Moreover, in the test with Candida albicans [7], the MIC came to 0.125 µg/mL (≈ 0.273 µM).

Take `O=C(/C=C/c1ccc(COC(Cn2ccnc2)c2ccc(Cl)cc2Cl)cc1)Nc1ccccc1` (centres undefined): the minimum inhibitory concentration (MIC) was 1 µg/mL (≈ 2.03 µM) in the test on Candida albicans [1]; 32 µg/mL (≈ 65 µM) with Candida parapsilosis; 2 µg/mL (≈ 4.06 µM) in the test on Candida tropicalis; 1 µg/mL (≈ 2.03 µM) in the test with Cryptococcus neoformans; 64 µg/mL (≈ 130 µM) in the test on Nakaseomyces glabratus; 0.03 µg/mL (≈ 0.0609 µM) in the test with Candida albicans [2]. Moreover, the MIC turned out to be 128 µg/mL (≈ 260 µM) with Candida albicans [3]; 8 µg/mL (≈ 16.2 µM) in the test with Candida albicans [4]; 0.25 µg/mL (≈ 0.508 µM) in the test with Candida albicans [5]; 64 µg/mL (≈ 130 µM) in the test with Pichia kudriavzevii; 0.5 µg/mL (≈ 1.02 µM) in the test with Candida albicans [6]; 1 µg/mL (≈ 2.03 µM) in the test with Aspergillus fumigatus. Further, the MIC in the test on Candida albicans [7] stood at 0.06 µg/mL (≈ 0.122 µM).

Take `Cc1ccc(NC(=O)/C=C/c2ccc(COC(Cn3ccnc3)c3ccc(Cl)cc3Cl)cc2)cc1` (centres undefined): the MIC in the test with Candida albicans [1] stood at 1 µg/mL (≈ 1.97 µM); with Candida parapsilosis, 0.125 µg/mL (≈ 0.247 µM); in the test on Candida tropicalis it was 64 µg/mL (≈ 126 µM); in the test with Cryptococcus neoformans, 0.125 µg/mL (≈ 0.247 µM); with Nakaseomyces glabratus, 16 µg/mL (≈ 31.6 µM); in the test on Candida albicans [2] it was 0.06 µg/mL (≈ 0.118 µM). The minimum inhibitory concentration (MIC) is 1 µg/mL (≈ 1.97 µM) in the test on Candida albicans [3]; 4 µg/mL (≈ 7.9 µM) in the test on Candida albicans [4]; 0.25 µg/mL (≈ 0.494 µM) with Candida albicans [5]; 16 µg/mL (≈ 31.6 µM) in the test with Pichia kudriavzevii; 2 µg/mL (≈ 3.95 µM) in the test on Candida albicans [6]; 16 µg/mL (≈ 31.6 µM) with Aspergillus fumigatus. Moreover, the minimal inhibitory concentration (MIC) with Candida albicans [7] came to 0.03 µg/mL (≈ 0.0592 µM).

Take `O=C(/C=C/c1ccc(COC(Cn2ccnc2)c2ccc(Cl)cc2Cl)cc1)Nc1cccc(Br)c1` (centres undefined): the minimum inhibitory concentration (MIC) is 4 µg/mL (≈ 7 µM) with Candida albicans [1]; 0.125 µg/mL (≈ 0.219 µM) with Candida parapsilosis; 64 µg/mL (≈ 112 µM) with Candida tropicalis; 8 µg/mL (≈ 14 µM) in the test on Cryptococcus neoformans; 64 µg/mL (≈ 112 µM) in the test on Nakaseomyces glabratus; 0.125 µg/mL (≈ 0.219 µM) in the test with Candida albicans [2]. The MIC in the test with Candida albicans [3] came to 128 µg/mL (≈ 224 µM); in the test on Candida albicans [4], 128 µg/mL (≈ 224 µM); in the test on Candida albicans [5], 4 µg/mL (≈ 7 µM); in the test with Pichia kudriavzevii, 64 µg/mL (≈ 112 µM); with Candida albicans [6] it was 2 µg/mL (≈ 3.5 µM); with Aspergillus fumigatus, 4 µg/mL (≈ 7 µM). In addition, the minimal inhibitory concentration (MIC) in the test with Candida albicans [7] was 0.25 µg/mL (≈ 0.438 µM).

In the case of `CNC(=O)/C=C/c1ccc(COC(Cn2ccnc2)c2ccc(Cl)cc2Cl)cc1` (centres undefined), the MIC in the test on Candida albicans [1] worked out at 16 µg/mL (≈ 37.2 µM); in the test with Candida parapsilosis it was 4 µg/mL (≈ 9.3 µM); with Candida tropicalis it was 8 µg/mL (≈ 18.6 µM); in the test with Cryptococcus neoformans it was 8 µg/mL (≈ 18.6 µM); in the test on Nakaseomyces glabratus, 32 µg/mL (≈ 74.4 µM); with Candida albicans [2], 0.125 µg/mL (≈ 0.29 µM). The MIC in the test with Candida albicans [3] came out at 128 µg/mL (≈ 297 µM); in the test with Candida albicans [4], 128 µg/mL (≈ 297 µM); in the test on Candida albicans [5], 4 µg/mL (≈ 9.3 µM); in the test on Pichia kudriavzevii, 16 µg/mL (≈ 37.2 µM); in the test with Candida albicans [6], 16 µg/mL (≈ 37.2 µM); with Aspergillus fumigatus it was 8 µg/mL (≈ 18.6 µM). Also, the minimum inhibitory concentration (MIC) with Candida albicans [7] is 0.25 µg/mL (≈ 0.581 µM).

As for `O=C(/C=C/c1ccc(COC(Cn2ccnc2)c2ccc(Cl)cc2Cl)cc1)Nc1cccc(Cl)c1` (centres undefined), the MIC in the test on Candida albicans [1] was determined as 4 µg/mL (≈ 7.59 µM); in the test with Candida parapsilosis, 0.125 µg/mL (≈ 0.237 µM); in the test on Candida tropicalis, 32 µg/mL (≈ 60.7 µM); in the test on Cryptococcus neoformans it was 16 µg/mL (≈ 30.4 µM); in the test with Nakaseomyces glabratus, 64 µg/mL (≈ 121 µM); in the test with Candida albicans [2], 0.06 µg/mL (≈ 0.114 µM). In addition, the minimal inhibitory concentration (MIC) with Candida albicans [3] was 128 µg/mL (≈ 243 µM); with Candida albicans [4], 128 µg/mL (≈ 243 µM); in the test on Candida albicans [5] it was 2 µg/mL (≈ 3.8 µM); in the test on Pichia kudriavzevii, 64 µg/mL (≈ 121 µM); in the test with Candida albicans [6], 2 µg/mL (≈ 3.8 µM); in the test with Aspergillus fumigatus it was 16 µg/mL (≈ 30.4 µM). For the same compound, the minimal inhibitory concentration (MIC) in the test on Candida albicans [7] came out at 0.125 µg/mL (≈ 0.237 µM).

Source of the values: ChEMBL document CHEMBL5550210, “Discovery of Novel α,β-Unsaturated Amide Derivatives as Candidate Antifungals to Overcome Fungal Resistance” (J Med Chem, 2024).
